These results are taken from ChEMBL document CHEMBL4387706, “Discovery of Novel Spiroindoline Derivatives as Selective Tankyrase Inhibitors” (J Med Chem, 2019).

For data set [1], the target named is T1, Tankyrase 1/2 (Homo sapiens, UniProt Q9H2K2+O95271).
T1 sequence (Q9H2K2 whole entry): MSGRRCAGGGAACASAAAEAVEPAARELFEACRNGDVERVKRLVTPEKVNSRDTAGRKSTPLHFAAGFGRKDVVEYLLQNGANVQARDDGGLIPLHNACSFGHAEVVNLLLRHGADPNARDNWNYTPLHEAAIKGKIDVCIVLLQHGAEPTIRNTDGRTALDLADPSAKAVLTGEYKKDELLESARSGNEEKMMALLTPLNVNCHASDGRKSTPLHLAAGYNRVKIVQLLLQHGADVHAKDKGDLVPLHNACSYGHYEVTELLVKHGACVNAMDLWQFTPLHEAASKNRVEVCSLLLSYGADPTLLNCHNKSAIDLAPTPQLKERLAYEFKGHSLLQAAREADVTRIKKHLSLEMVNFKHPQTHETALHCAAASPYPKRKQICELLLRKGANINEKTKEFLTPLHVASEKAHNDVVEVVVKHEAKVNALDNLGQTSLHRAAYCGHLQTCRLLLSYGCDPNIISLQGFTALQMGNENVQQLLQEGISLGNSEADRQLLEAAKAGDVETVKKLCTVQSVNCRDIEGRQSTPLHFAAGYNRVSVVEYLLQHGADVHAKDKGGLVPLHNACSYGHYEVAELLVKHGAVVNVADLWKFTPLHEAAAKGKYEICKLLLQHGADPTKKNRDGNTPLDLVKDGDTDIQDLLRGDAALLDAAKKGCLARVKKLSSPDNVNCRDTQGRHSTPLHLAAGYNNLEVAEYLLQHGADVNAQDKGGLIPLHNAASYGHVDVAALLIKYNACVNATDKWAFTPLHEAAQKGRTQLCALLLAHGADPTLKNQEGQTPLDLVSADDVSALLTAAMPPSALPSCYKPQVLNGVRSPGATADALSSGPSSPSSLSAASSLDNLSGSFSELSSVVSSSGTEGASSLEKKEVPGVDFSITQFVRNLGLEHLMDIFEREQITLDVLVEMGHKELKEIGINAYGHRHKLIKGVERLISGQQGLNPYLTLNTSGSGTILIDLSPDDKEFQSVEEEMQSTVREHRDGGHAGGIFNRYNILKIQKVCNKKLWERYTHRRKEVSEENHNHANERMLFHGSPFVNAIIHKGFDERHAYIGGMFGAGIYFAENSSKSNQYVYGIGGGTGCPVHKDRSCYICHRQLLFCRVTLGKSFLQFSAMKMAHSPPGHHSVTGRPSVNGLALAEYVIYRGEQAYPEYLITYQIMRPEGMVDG
T1 sequence (O95271 whole entry): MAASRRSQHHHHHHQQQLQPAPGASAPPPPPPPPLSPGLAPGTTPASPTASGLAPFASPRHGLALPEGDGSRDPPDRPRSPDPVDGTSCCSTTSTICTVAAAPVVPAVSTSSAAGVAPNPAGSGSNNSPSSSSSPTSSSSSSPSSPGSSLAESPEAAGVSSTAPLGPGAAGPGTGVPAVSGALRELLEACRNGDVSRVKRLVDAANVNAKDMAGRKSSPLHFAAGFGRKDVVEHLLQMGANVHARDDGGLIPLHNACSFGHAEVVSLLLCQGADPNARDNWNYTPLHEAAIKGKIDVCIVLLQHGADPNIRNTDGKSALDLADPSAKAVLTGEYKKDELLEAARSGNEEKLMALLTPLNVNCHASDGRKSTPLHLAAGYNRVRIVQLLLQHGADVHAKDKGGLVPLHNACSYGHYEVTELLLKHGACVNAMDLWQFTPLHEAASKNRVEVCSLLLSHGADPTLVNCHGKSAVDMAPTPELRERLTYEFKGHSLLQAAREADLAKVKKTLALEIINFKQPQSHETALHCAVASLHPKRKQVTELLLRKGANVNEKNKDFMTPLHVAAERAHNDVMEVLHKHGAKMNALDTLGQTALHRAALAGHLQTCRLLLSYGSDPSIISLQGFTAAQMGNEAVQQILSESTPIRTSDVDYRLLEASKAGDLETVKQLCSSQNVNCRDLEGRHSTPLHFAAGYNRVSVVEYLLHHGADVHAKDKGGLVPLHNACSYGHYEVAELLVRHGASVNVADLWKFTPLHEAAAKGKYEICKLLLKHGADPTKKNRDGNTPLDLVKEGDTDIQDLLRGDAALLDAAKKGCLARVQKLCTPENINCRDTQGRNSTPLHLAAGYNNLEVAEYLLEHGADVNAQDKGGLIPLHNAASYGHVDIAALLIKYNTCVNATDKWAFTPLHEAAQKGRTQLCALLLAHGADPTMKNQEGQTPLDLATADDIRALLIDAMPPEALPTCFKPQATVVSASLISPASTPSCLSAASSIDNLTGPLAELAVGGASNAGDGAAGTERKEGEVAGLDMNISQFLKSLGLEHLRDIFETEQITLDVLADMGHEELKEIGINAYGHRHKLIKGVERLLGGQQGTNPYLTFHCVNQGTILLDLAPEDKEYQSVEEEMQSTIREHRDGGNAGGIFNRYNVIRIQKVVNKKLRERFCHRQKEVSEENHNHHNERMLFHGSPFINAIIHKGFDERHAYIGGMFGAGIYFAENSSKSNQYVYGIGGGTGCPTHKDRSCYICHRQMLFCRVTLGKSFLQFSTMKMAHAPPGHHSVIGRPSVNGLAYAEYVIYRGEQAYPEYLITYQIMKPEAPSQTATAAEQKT
Description: Inhibition of TNKS/TNKS2 (unknown origin) expressed in human DLD1 cells assessed as reduction in Wnt-signaling measured after 24 hrs by TCF-luciferase reporter gene assay

Data set [2] concerns COLO 320DM. The data set can be described thus: Antitumor activity against human COLO320DM cells xenografted in mouse assessed as tumor growth inhibition at 300 mg/kg, ip administered twice daily for 11 days relative to control. In kind it is functional. Particulars: 264 h, read-out: TGI. In general terms: In xenograft studies the graft and the host belong to different species.

Data set [3] is filed under the species Homo sapiens. Description: Effect on hippo signaling protein in human COLO320DM cells assessed as change in CYR61 expression at 0.033 to 1 uM measured after 48 hrs by RT-PCR analysis. In kind it is cell-based.
The target in data set [4] is D(1A) dopamine receptor (Homo sapiens) (UniProt P21728). The data set can be described thus: Displacement of [3H]SCH-23390 from full-length recombinant human D1 receptor expressed in CHO cells at 10 uM measured after 120 mins by scintillation counting method relative to control. In kind it is cell-based. Background: In a radioligand displacement assay an active substance lowers the binding of a labelled ligand.

The nature of data set [5]: Toxicity in mouse xenografted with human COLO320DM cells assessed as body weight loss at 300 mg/kg, ip administered twice daily for 11 days. Format: organism-based. Particulars: in vivo, 264 h.
Data set [6] deals with Tankyrase 1/2 (Homo sapiens) (UniProt Q9H2K2+O95271). Description: Inhibition of TNKS/TNKS2-mediated beta-catenin signaling in human COLO320DM cells assessed as down regulation of TCF7 mRNA expression at 0.033 to 1 uM measured after 48 hrs by RT-PCR analysis. In kind it is cell-based.

Activity calls are given as the source filed them. No cut-off for these calls is given here.

The term IC50 denotes the point on the concentration scale where inhibition reaches its midpoint. As usually defined, the inhibition is the share of the control response that was lost under treatment.

Sequence of D(1A) dopamine receptor (Homo sapiens) (P21728 whole entry): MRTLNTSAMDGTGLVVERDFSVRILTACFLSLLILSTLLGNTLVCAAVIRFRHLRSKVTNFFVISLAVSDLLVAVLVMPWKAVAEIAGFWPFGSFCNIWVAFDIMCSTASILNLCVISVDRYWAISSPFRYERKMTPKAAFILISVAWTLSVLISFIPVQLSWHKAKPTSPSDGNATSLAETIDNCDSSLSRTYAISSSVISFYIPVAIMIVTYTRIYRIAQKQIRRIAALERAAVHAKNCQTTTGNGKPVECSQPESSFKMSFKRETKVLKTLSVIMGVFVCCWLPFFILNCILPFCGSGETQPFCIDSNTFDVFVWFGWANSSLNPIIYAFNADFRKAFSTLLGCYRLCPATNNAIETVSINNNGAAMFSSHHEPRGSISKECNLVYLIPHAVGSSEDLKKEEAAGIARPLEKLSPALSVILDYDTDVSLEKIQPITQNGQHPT

Consider `COc1ccccc1N1CCN(c2nc3c(c(=O)[nH]2)CCCC3)CC1`, for which, in data set [1], the IC50 is 233 nM. This lies in the sub-micromolar range.

For `O=c1[nH]c(N2CCC3(CC2)CN(CCO)c2cc(F)cc(F)c23)nc2c1CCCC2`, the inhibition in vivo at 300 mg/kg in data set [2] stood at 51.9%. Besides, the outcome in data set [3] was inactive. Further, in data set [4], the inhibition was more than 20%. Besides, the Activity result in data set [5] is on record as “Toxic”. The inhibition entry in data set [6] was “Active”.
